Laboratory results taken from patent US4497806A, “Triorganotin compounds, antifungal and antibacterial compositions containing same, and method of using same” (priority 1983, dated 1985).

Tests used:
[1] = tested on: Cladosporium carpophilium (ATCC 12117); assay: Antifungal activity, agar plate growth inhibition; type: cell-based, Cladosporium carpophilum; conditions: for growth inhibition: 14 days
Method: (§1) Dilutions of the sterile solutions were prepared and added to liquified potato dextrose agar (Difco) to yield final concentrations of 100, 10 and 1 μg/ml. The agar, containing the appropriate organotin compound, was poured into sterile petri dishes and allowed to solidify over night. The agar surface was inoculated centrally with a 2 mm^2 portion of the growth from a ten-day-old culture of each fungus of the group consisting of Aspergillus niger, Chaetomium globosum, Cladosporium carpophilum, Fusarium moniliforme, Myrotheium verrucaria, Penicillium notatum, Rhizopus stolonifer, Trichoderma viride and Trichophyton mentagrophytes, or from a two-day-old culture of Saccharomyces cerevisiae. Inoculated plates were incubated for 14 days and observations of growth inhibition were made by measuring the diameters of the colonies present on the agar surface.
(§2) A solvent was included in all evaluations, as were growth controls for all fungal species.
(§3) The following compounds were tested for comparative purposes: [drawing 6] These compounds were tested for antifungal activity in the same manner as the triorganotin 5-nitro-2-furoates of the present invention.

Escherichia coli = assay: Antibacterial activity, agar growth inhibition; type: cell-based; conditions: for growth inhibition: Gram-negative, 24 hours at 37° C.
Method: (§4) The agar was also needed with a 1:100 dilution of an 18-hour old culture of the desired bacterial species in sterile distilled water. The plates were incubated for 24 hours at 37° C. with each bacterial strain. Observations of bacterial growth inhibition were made following the appropriate incubation period.
(§5) A solvent control was included in all evaluations, as were growth controls for all bacteria species.
(§6) These compounds were tested for antibacterial activity in the same manner as the triorganotin 5-nitro-2-furoates of the present invention.
(§7) All of the bacteria tested were obtained from the culture collection of the Department of Biological Sciences, St. John's University.

[2] = tested on: Trichophyton mentagrophytes (ATCC 9129); assay: Antifungal activity, agar plate growth inhibition; type: cell-based; conditions: 14 days
Method: as §1, §2, §3

[3] = tested on: Myrothecium verrucaria (ATCC 9095); assay: Antifungal activity, agar plate growth inhibition; type: cell-based; conditions: 14 days
Method: as §1, §2, §3

[4] = tested on: Rhizopus stolonifer (ATCC 10404); assay: Antifungal activity, agar plate growth inhibition; type: cell-based; conditions: 14 days
Method: as §1, §2, §3

[5] = tested on: Fusarium moniliforme (ATCC 10052); assay: Antifungal activity, agar plate growth inhibition; type: cell-based; conditions: 14 days
Method: as §1, §2, §3

[6] = tested on: Aspergillus niger (ATCC 12845); assay: Antifungal activity, agar plate growth inhibition; type: cell-based; conditions: 14 days
Method: as §1, §2, §3

[7] = tested on: Trichoderma viride (ATCC 8678); assay: Antifungal activity, agar plate growth inhibition; type: cell-based; conditions: 14 days
Method: as §1, §2, §3

[8] = tested on: Chaetomium globosum (ATCC 6205); assay: Antifungal activity, agar plate growth inhibition; type: cell-based; conditions: 14 days
Method: as §1, §2, §3

[9] = tested on: Penicillium notatum (ATCC 9179); assay: Antifungal activity, agar plate growth inhibition; type: cell-based; conditions: for growth inhibition: 14 days
Method: as §1, §2, §3

[10] = tested on: Saccharomyces cerevisiae (ATCC 9896); assay: Antifungal activity, agar plate growth inhibition; type: cell-based; conditions: 14 days
Method: as §1, §2, §3

Staphylococcus aureus = assay: Antibacterial activity, agar growth inhibition; type: cell-based; set-up: key to growth inhibition: -: no inhibition of growth; +: partial inhibition; 2+: complete inhibition; conditions: Gram-positive; for growth inhibition: 24 hours at 37° C.
Method: The antibacterial activity of Compounds A-E was investigated by means of incorporating the compounds into sterile tryptic soy agar (Difco) at levels of 100, 10, and 1 μg/ml. The agar was also […] with a 1:100 dilution of an 18-hour old culture of the desired bacterial species in sterile distilled water. The plates were incubated for 24 hours at 37° C. with each bacterial strain. Observations of bacterial growth inhibition were made following the appropriate incubation period.
as §5
Comparative compounds 1-5 above were employed for comparison purposes. These compounds were tested for antibacterial activity in the same manner as the triorganotin 5-nitro-2-furoates of the present invention.
as §7
The ability of Compound B to inhibit the growth of other Gram-positive bacteria, using the same test procedures as described for the antibacterial activity determined in Table III above, is illustrated in Table IV below.

Pseudomonas aeruginosa = assay: Antibacterial activity, agar growth inhibition; type: cell-based; conditions: for growth inhibition: Gram-negative, 24 hours at 37° C.
Method: as §4, §5, §6, §7

N#CN=C(Nc1ccccc1)[O][Sn]([c]1ccccc1)([c]1ccccc1)[c]1ccccc1 [Comparative Compound 3, N--phenyl, N'--cyano-O--(triphenylstannyl)-isourea, reference compound]
growth inhibition ([1]; 1 μg/ml): -
growth inhibition ([1]; 10 μg/ml): +
growth inhibition ([1]; 100 μg/ml): +
growth inhibition (in words) (Escherichia coli; 100 μg/ml): inactive
growth inhibition (Escherichia coli; 1 μg/ml): -
growth inhibition (Escherichia coli; 10 μg/ml): -
growth inhibition (Escherichia coli; 100 μg/ml): -
growth inhibition ([2]; 1 μg/ml): +
growth inhibition ([2]; 10 μg/ml): +
growth inhibition ([2]; 100 μg/ml): 2+
growth inhibition ([3]; 1 μg/ml): +
growth inhibition ([3]; 10 μg/ml): +
growth inhibition ([3]; 100 μg/ml): +
growth inhibition ([4]; 1 μg/ml): -
growth inhibition ([4]; 10 μg/ml): +
growth inhibition ([4]; 100 μg/ml): +
growth inhibition ([5]; 1 μg/ml): -
growth inhibition ([5]; 10 μg/ml): +
growth inhibition ([5]; 100 μg/ml): +
growth inhibition ([6]; 1 μg/ml): -
growth inhibition ([6]; 10 μg/ml): +
growth inhibition ([6]; 100 μg/ml): +
growth inhibition ([7]; 1 μg/ml): -
growth inhibition ([7]; 10 μg/ml): -
growth inhibition ([7]; 100 μg/ml): +
growth inhibition ([8]; 1 μg/ml): -
growth inhibition ([8]; 10 μg/ml): +
growth inhibition ([8]; 100 μg/ml): +
growth inhibition ([9]; 1 μg/ml): -
growth inhibition ([9]; 10 μg/ml): +
growth inhibition ([9]; 100 μg/ml): +
growth inhibition ([10]; 1 μg/ml): -
growth inhibition ([10]; 10 μg/ml): -
growth inhibition ([10]; 100 μg/ml): 2+
minimum concentration for complete growth inhibition (Staphylococcus aureus): 100 µg/mL
growth inhibition (Staphylococcus aureus; 1 μg/ml): -

Tri(2-phenyl-2,2-dimethylethyl)tin 5-nitro-2-furoate [Compound D]
growth inhibition ([1]; 1 μg/ml): -
growth inhibition ([1]; 10 μg/ml): -
growth inhibition ([1]; 100 μg/ml): -
growth inhibition (Pseudomonas aeruginosa; 1 μg/ml): -
growth inhibition (Pseudomonas aeruginosa; 10 μg/ml): -
growth inhibition (Pseudomonas aeruginosa; 100 μg/ml): -
growth inhibition (Escherichia coli; 1 μg/ml): -
growth inhibition (Escherichia coli; 10 μg/ml): -
growth inhibition (Escherichia coli; 100 μg/ml): -
growth inhibition ([2]; 1 μg/ml): +
growth inhibition ([2]; 10 μg/ml): +
growth inhibition ([2]; 100 μg/ml): +
growth inhibition ([3]; 1 μg/ml): -
growth inhibition ([3]; 10 μg/ml): +
growth inhibition ([3]; 100 μg/ml): +
growth inhibition ([4]; 1 μg/ml): -
growth inhibition ([4]; 10 μg/ml): -
growth inhibition ([4]; 100 μg/ml): -
growth inhibition ([5]; 1 μg/ml): -
growth inhibition ([5]; 10 μg/ml): -
growth inhibition ([5]; 100 μg/ml): -
growth inhibition ([6]; 1 μg/ml): -
growth inhibition ([6]; 10 μg/ml): -
growth inhibition ([6]; 100 μg/ml): -
growth inhibition ([7]; 1 μg/ml): -
growth inhibition ([7]; 10 μg/ml): -
growth inhibition ([7]; 100 μg/ml): -
growth inhibition ([8]; 1 μg/ml): -
growth inhibition ([8]; 10 μg/ml): +
growth inhibition ([8]; 100 μg/ml): +
growth inhibition ([9]; 1 μg/ml): -
growth inhibition ([9]; 10 μg/ml): +
growth inhibition ([9]; 100 μg/ml): +
growth inhibition ([10]; 1 μg/ml): -
growth inhibition ([10]; 10 μg/ml): -
growth inhibition ([10]; 100 μg/ml): -
growth inhibition (Staphylococcus aureus; 1 μg/ml): -

Tricyclohexyltin 5-nitro-2-furoate [Compound C]
growth inhibition ([1]; 1 μg/ml): +
growth inhibition ([1]; 10 μg/ml): +
growth inhibition ([1]; 100 μg/ml): +
growth inhibition (Pseudomonas aeruginosa; 1 μg/ml): -
growth inhibition (Pseudomonas aeruginosa; 10 μg/ml): -
growth inhibition (Pseudomonas aeruginosa; 100 μg/ml): -
growth inhibition (Escherichia coli; 1 μg/ml): -
growth inhibition (Escherichia coli; 10 μg/ml): -
growth inhibition (Escherichia coli; 100 μg/ml): -
growth inhibition ([2]; 1 μg/ml): +
growth inhibition ([2]; 10 μg/ml): +
growth inhibition ([2]; 100 μg/ml): +
growth inhibition ([3]; 1 μg/ml): +
growth inhibition ([3]; 10 μg/ml): +
growth inhibition ([3]; 100 μg/ml): +
growth inhibition ([4]; 1 μg/ml): -
growth inhibition ([4]; 10 μg/ml): +
growth inhibition ([4]; 100 μg/ml): +
growth inhibition ([5]; 1 μg/ml): +
growth inhibition ([5]; 10 μg/ml): +
growth inhibition ([5]; 100 μg/ml): +
growth inhibition ([6]; 1 μg/ml): +
growth inhibition ([6]; 10 μg/ml): +
growth inhibition ([6]; 100 μg/ml): +
growth inhibition ([7]; 1 μg/ml): +
growth inhibition ([7]; 10 μg/ml): +
growth inhibition ([7]; 100 μg/ml): +
growth inhibition ([8]; 1 μg/ml): +
growth inhibition ([8]; 10 μg/ml): +
growth inhibition ([8]; 100 μg/ml): +
growth inhibition ([9]; 1 μg/ml): +
growth inhibition ([9]; 10 μg/ml): +
growth inhibition ([9]; 100 μg/ml): 2+
growth inhibition ([10]; 1 μg/ml): -
growth inhibition ([10]; 10 μg/ml): -
growth inhibition ([10]; 100 μg/ml): -

Trimethyltin 5-nitro-2-furoate [Compound E]
growth inhibition ([1]; 1 μg/ml): +
growth inhibition (in words) ([1]; 10 μg/ml): completely inhibited
growth inhibition ([1]; 10 μg/ml): 2+
growth inhibition ([1]; 100 μg/ml): 2+
activity towards the Gram-negative bacterium (in words) (Pseudomonas aeruginosa): showed activity
growth inhibition (Pseudomonas aeruginosa; 1 μg/ml): -
growth inhibition (Pseudomonas aeruginosa; 10 μg/ml): -
activity towards the Gram-negative bacterium (in words) (Escherichia coli): showed activity
growth inhibition (in words) (Escherichia coli; 100 μg/ml): completely inhibited
growth inhibition (Escherichia coli; 1 μg/ml): -
growth inhibition (Escherichia coli; 10 μg/ml): -
growth inhibition ([2]; 1 μg/ml): +
growth inhibition ([2]; 10 μg/ml): +
growth inhibition ([2]; 100 μg/ml): +
growth inhibition ([3]; 1 μg/ml): +
growth inhibition ([3]; 10 μg/ml): +
growth inhibition ([3]; 100 μg/ml): 2+
growth inhibition ([4]; 1 μg/ml): +
growth inhibition ([4]; 10 μg/ml): +
growth inhibition ([4]; 100 μg/ml): +
growth inhibition ([5]; 1 μg/ml): -
growth inhibition ([5]; 10 μg/ml): +
growth inhibition ([5]; 100 μg/ml): +
growth inhibition ([6]; 1 μg/ml): -
growth inhibition ([6]; 10 μg/ml): +
growth inhibition ([6]; 100 μg/ml): +
growth inhibition ([7]; 1 μg/ml): +
growth inhibition ([7]; 10 μg/ml): +
growth inhibition ([7]; 100 μg/ml): +
growth inhibition ([8]; 1 μg/ml): -
growth inhibition ([8]; 10 μg/ml): +
growth inhibition ([8]; 100 μg/ml): +
growth inhibition ([9]; 1 μg/ml): -
growth inhibition ([9]; 10 μg/ml): +
growth inhibition (in words) ([9]; 100 μg/ml): completely inhibited
growth inhibition ([9]; 100 μg/ml): 2+
growth inhibition ([10]; 1 μg/ml): -
growth inhibition ([10]; 10 μg/ml): -
growth inhibition ([10]; 100 μg/ml): -
growth inhibition (Staphylococcus aureus; 1 μg/ml): -
growth inhibition (Staphylococcus aureus; 10 μg/ml): -
